Results published in patent publication US20140234253A1, “Combination Treatments For Hepatitis C” (GlaxoSmithKline LLC, priority 2011, published 2014).
Converted amounts (≈) assume the structure as drawn.

Test: solubility of suspension in buffer
Format: physicochemical
Conditions: aqueous buffer; in the buffer at 37° C. when implanted

solubility: ~19 µg/mL (≈ 43.7 µM)
Structure (SMILES): CC1(C)O[C@@H]2C[C@H]3[C@@H]4CCC5=CC(=O)C=C[C@]5(C)[C@@]4(F)[C@@H](O)C[C@]3(C)[C@]2(C(=O)CO)O1 [triamcinolone acetonide]
